Data set [1] concerns the target T1, Amylin receptor AMY3; CALCR/RAMP3 (Homo sapiens, UniProt O60896+P30988).
T1 sequence (P30988 whole entry): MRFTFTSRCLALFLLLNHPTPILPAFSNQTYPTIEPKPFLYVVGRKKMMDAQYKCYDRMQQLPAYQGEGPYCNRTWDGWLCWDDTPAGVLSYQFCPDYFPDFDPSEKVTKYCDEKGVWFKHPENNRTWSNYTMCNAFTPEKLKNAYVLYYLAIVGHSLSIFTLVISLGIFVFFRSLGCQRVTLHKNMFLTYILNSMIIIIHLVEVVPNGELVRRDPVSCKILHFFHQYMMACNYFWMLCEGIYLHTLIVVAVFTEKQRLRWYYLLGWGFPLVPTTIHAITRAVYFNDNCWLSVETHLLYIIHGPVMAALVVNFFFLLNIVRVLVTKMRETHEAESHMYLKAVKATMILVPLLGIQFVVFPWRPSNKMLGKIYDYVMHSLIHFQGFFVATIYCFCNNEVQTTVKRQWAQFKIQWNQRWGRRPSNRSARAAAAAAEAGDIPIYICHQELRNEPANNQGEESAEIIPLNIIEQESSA
T1 sequence (O60896 whole entry): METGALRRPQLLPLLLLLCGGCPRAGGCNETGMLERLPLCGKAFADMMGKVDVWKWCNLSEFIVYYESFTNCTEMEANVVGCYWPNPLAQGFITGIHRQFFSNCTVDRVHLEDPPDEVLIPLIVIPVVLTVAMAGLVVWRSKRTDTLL
As to the kind of experiment: Agonist activity at human amylin receptor expressed in BHK570 cells co-expressing RAMP3 assessed as increase in intracellular cAMP concentration incubated for 3 hrs in absence of albumin by CRE luciferase reporter gene assay. Format: functional, cell-based.

Data set [2] addresses T2, Calcitonin receptor (Homo sapiens, UniProt P30988).
T2 sequence (P30988 whole entry): T1 sequence (P30988 whole entry)
In words: Agonist activity at human calcitonin receptor expressed in BHK570 cells assessed as increase in intracellular cAMP concentration incubated for 3 hrs in absence of albumin by CRE luciferase reporter gene assay. Format: functional, cell-based. (In a reporter assay the amount or activity of a reporter protein is the signal.)

Data set [3] concerns the target T1, Amylin receptor AMY3; CALCR/RAMP3. In words: Agonist activity at human amylin receptor expressed in BHK570 cells co-expressing RAMP3 assessed as increase in intracellular cAMP concentration incubated for 3 hrs in presence of 10% FBS by CRE luciferase reporter gene assay. Format: functional, cell-based.
Data set [4] has as its target T2, Calcitonin receptor. In words: Agonist activity at human calcitonin receptor expressed in BHK570 cells assessed as increase in intracellular cAMP concentration incubated for 3 hrs in presence of 10% FBS by CRE luciferase reporter gene assay. It counts as functional, cell-based.
Data set [5] in a line: Solubility in 100 mM glycylglycine buffer at pH 3.0 incubated for 18 hrs by UPLC analysis. It counts as physicochemical.
Data set [6] is described as follows: Solubility in 100 mM glycylglycine buffer at pH 4.0 incubated for 18 hrs by UPLC analysis. Format: physicochemical.
Data set [7] can be described thus: Solubility in 100 mM bistrispropane buffer at pH 6.0 incubated for 18 hrs by UPLC analysis. Format: physicochemical.
A short description of data set [8]: Solubility in 100 mM glycylglycine buffer at pH 5.0 incubated for 18 hrs by UPLC analysis. It counts as physicochemical.
Data set [9] can be described thus: Solubility in 100 mM bistrispropane buffer at pH 6.5 incubated for 18 hrs by UPLC analysis. It counts as physicochemical.
Data set [10] can be described thus: Solubility in 100 mM bistrispropane buffer at pH 7.0 incubated for 18 hrs by UPLC analysis. It counts as physicochemical.
Data set [11] can be described thus: Solubility in 100 mM bistrispropane buffer at pH 7.5 incubated for 18 hrs by UPLC analysis. It counts as physicochemical.
Data set [12] is described as follows: Solubility in 100 mM bistrispropane buffer at pH 8.0 incubated for 18 hrs by UPLC analysis. Format: physicochemical.
Data set [13] deals with T1, Amylin receptor AMY3; CALCR/RAMP3. As to the kind of experiment: Displacement of [125I]-labeled rat amylin from human amylin receptor expressed in BHK570 cell membranes co-expressing RAMP3 incubated for 120 mins by scintillation proximity assay. In general terms: Displacement assays read how much labelled ligand stays bound in the presence of the test substance.
Data set [14] addresses T2, Calcitonin receptor. In words: Displacement of [125I]-labeled human calcitonin from human calcitonin receptor expressed in BHK tkts13 cell membranes incubated for 1 hr by scintillation proximity assay.
Data set [15] addresses T3, Amylin receptor AMY3; CALCR/RAMP3 (Rattus norvegicus, UniProt P32214+Q9JJ73).
T3 sequence (P32214 whole entry): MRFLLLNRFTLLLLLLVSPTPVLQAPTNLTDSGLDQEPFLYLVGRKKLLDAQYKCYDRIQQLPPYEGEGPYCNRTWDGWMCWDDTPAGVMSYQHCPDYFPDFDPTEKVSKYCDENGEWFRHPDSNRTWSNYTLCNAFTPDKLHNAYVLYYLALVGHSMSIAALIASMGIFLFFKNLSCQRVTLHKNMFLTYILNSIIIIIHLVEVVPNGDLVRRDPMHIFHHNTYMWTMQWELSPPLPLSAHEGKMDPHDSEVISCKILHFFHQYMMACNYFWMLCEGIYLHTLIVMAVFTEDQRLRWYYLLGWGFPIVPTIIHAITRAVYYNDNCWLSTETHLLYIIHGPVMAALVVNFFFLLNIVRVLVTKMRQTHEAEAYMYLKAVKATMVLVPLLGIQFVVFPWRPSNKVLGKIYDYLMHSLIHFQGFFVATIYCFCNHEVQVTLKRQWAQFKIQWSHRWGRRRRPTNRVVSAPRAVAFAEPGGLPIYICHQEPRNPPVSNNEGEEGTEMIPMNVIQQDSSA
T3 sequence (Q9JJ73 whole entry): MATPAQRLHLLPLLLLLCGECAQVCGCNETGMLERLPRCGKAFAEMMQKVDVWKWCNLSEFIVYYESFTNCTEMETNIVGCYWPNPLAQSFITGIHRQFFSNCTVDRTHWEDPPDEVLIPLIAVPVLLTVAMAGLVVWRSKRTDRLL
In words: Displacement of [125I]-labeled rat amylin from rat amylin receptor expressed in BHK tkts13 cell membranes co-expressing RAMP3 incubated for 120 mins by scintillation proximity assay.

Data set [16] relates to Rattus norvegicus. In words: Reduction in food intake in Sprague-Dawley rat at 3 nmol/kg measured 0 to 24 hrs post dose relative to control. It counts as functional. On the set-up: scale not given: the % may be the effect or the level left.
For data set [17], the system named is Rattus norvegicus. As to the kind of experiment: Reduction in food intake in Sprague-Dawley rat at 3 nmol/kg measured 24 to 48 hrs post dose relative to control. Format: functional. On the set-up: scale not given: the % may be the effect or the level left.
The nature of data set [18]: Stability in pH 7.5 buffer assessed as lag time for fibril formation at 1 uM by Thioflavin T based fluorescence assay. It counts as physicochemical. Conditions: pH 7.5, 1 µM.
Data set [19] in a line: Stability in pH 7.5 buffer assessed as compound recovery at 1 uM by Thioflavin T based fluorescence assay. It counts as physicochemical. The following applies: read-out: Drug recovery.
The target of data set [20] is T1, Amylin receptor AMY3; CALCR/RAMP3. In words: Displacement of [125I]-labeled rat amylin from human amylin receptor expressed in BHK tkts13 whole cells co-expressing RAMP3 incubated for 60 mins by scintillation proximity assay. It counts as cell-based.

By EC50 is commonly meant the concentration at which the effect is half-maximal. As a reminder, the solubility is the dissolved amount per volume that the medium holds. As a reminder, the IC50 is the concentration that inhibits the measured activity by half.

The structures appear in SMILES notation. Numbered stars: 1 amine (or outer) side, 2 acyl side, 3 side chain; on linkers, the order of the positions; unused ones are H or OH. Side chains are listed from the residue outwards. Peptide text beside a SMILES is read from it. * marks the point of attachment. C20 diacid = O=C(O)CCCCCCCCCCCCCCCCCCC(=O)*; C18 diacid = O=C(O)CCCCCCCCCCCCCCCCC(=O)*; γGlu = O=C(O)[C@H](CCC(=O)[*:2])N[*:1]

`CC(=O)N[C@@H](C)C(=O)N[C@@H](CO)C(=O)N[C@@H](CCC(=O)O)C(=O)N[C@@H](CC(C)C)C(=O)N[C@@H](CO)C(=O)N[C@H](C(=O)N[C@@H](C)C(=O)N[C@@H](C)C(=O)N[C@@H](CC(C)C)C(=O)NCC(=O)N[C@@H](CCCNC(=N)N)C(=O)N[C@@H](CC(C)C)C(=O)N[C@@H](CO)C(=O)N[C@@H](C)C(=O)N[C@@H](CCCCNC(=O)CC[C@H](NC(=O)CCCCCCCCCCCCCCCCCCC(=O)O)C(=O)O)C(=O)N[C@@H](CC(C)C)C(=O)N[C@@H](Cc1cnc[nH]1)C(=O)N[C@@H](CCC(=O)O)C(=O)N[C@@H](CC(C)C)C(=O)N[C@@H](C)C(=O)N[C@H](C(=O)N[C@@H](CC(C)C)C(=O)N1CCC[C@H]1C(=O)N[C@@H](CCCNC(=N)N)C(=O)N[C@H](C(=O)N[C@@H](CCC(=O)O)C(=O)N[C@H](C(=O)NCC(=O)N[C@@H](CO)C(=O)NCC(=O)N[C@@H](CO)C(=O)N1CCC[C@H]1C(N)=O)[C@@H](C)O)[C@@H](C)O)[C@@H](C)O)[C@@H](C)O` (Ac-ASELSTAALGRLSAK([γGlu-C20 diacid])LHELATLPRTETGSGSP-NH2): the concentration giving a half-maximal response (EC50) in data set [1] was 0.021 nM; in data set [2] it was 0.028 nM; in data set [3], 0.1 nM; in data set [4], 0.044 nM. In addition, the solubility at 18 h in data set [5], in [6], in [7], in [8], in [9] and in [10] was at least 200 µM each time. Besides, the solubility at 18 h in data set [11] and in data set [12] was at least 200 µM in each case. Moreover, the 50% inhibitory concentration (IC50) in [13] is 0.074 nM; in [14], 0.046 nM; in data set [15] it was 0.115 nM.

For the compound `CC(C)C[C@H](NC(=O)CNC(=O)[C@H](CO)NC(=O)[C@H](C)NC(=O)CC[C@H](NC(=O)CCCCCCCCCCCCCCCCC(=O)O)C(=O)O)C(=O)N[C@@H](CO)C(=O)N[C@H](C(=O)N[C@@H](C)C(=O)N[C@@H](C)C(=O)N[C@@H](CC(C)C)C(=O)NCC(=O)N[C@@H](CCCNC(=N)N)C(=O)N[C@@H](CC(C)C)C(=O)N[C@@H](CO)C(=O)N[C@@H](CCC(N)=O)C(=O)N[C@@H](CCC(=O)O)C(=O)N[C@@H](CC(C)C)C(=O)N[C@@H](Cc1cnc[nH]1)C(=O)N[C@@H](CCC(=O)O)C(=O)N[C@@H](CC(C)C)C(=O)N[C@@H](CCC(N)=O)C(=O)N[C@H](C(=O)N[C@@H](Cc1ccc(O)cc1)C(=O)N1CCC[C@H]1C(=O)N[C@@H](CCCNC(=N)N)C(=O)N[C@H](C(=O)N[C@@H](CCC(=O)O)C(=O)N[C@H](C(=O)NCC(=O)N[C@@H](CO)C(=O)NCC(=O)N[C@H](C(=O)N[C@@H](Cc1ccc(O)cc1)C(N)=O)[C@@H](C)O)[C@@H](C)O)[C@@H](C)O)[C@@H](C)O)[C@@H](C)O` ({C18 diacid-γGlu}-ASGLSTAALGRLSQELHELQTYPRTETGSGTY-NH2), the Activity was 44% in data set [16] and 8% in [17]. In addition, the EC50 in data set [3] was 0.07 nM; in data set [4], 0.053 nM. In [18], the Time was over 45 h. Also, the remaining at 1 µM in data set [19] turned out to be 100%. In addition, the solubility at 18 h in data set [5], in data set [6], in data set [7], in data set [9], in data set [10] and in data set [11] was at least 200 µM in each case. Moreover, in data set [12], the solubility at 18 h was at least 200 µM. Further, the 50% inhibitory concentration (IC50) is 0.122 nM in [13] and 0.057 nM in [14].

`CC(C)C[C@H](NC(=O)[C@H](C)NC(=O)[C@H](C)NC(=O)[C@@H](NC(=O)[C@H](CO)NC(=O)[C@H](CC(C)C)NC(=O)[C@H](CCC(=O)O)NC(=O)[C@H](CO)NC(=O)[C@H](C)NC(=O)CC[C@H](NC(=O)CCCCCCCCCCCCCCCCCCC(=O)O)C(=O)O)[C@@H](C)O)C(=O)NCC(=O)N[C@@H](CCCNC(=N)N)C(=O)N[C@@H](CC(C)C)C(=O)N[C@@H](CO)C(=O)N[C@@H](C)C(=O)N[C@@H](CCC(=O)O)C(=O)N[C@@H](CC(C)C)C(=O)N[C@@H](Cc1cnc[nH]1)C(=O)N[C@@H](CCC(=O)O)C(=O)N[C@@H](CC(C)C)C(=O)N[C@@H](C)C(=O)N[C@H](C(=O)N[C@@H](Cc1ccc(O)cc1)C(=O)N1CCC[C@H]1C(=O)N[C@@H](CCCNC(=N)N)C(=O)N[C@H](C(=O)N[C@@H](CCC(=O)O)C(=O)N[C@H](C(=O)NCC(=O)N[C@@H](CO)C(=O)NCC(=O)N[C@@H](C)C(=O)N1CCC[C@H]1C(N)=O)[C@@H](C)O)[C@@H](C)O)[C@@H](C)O` ({C20 diacid-γGlu}-ASELSTAALGRLSAELHELATYPRTETGSGAP-NH2): the EC50 was 0.041 nM in data set [2], 0.1 nM in [3] and 0.037 nM in [4]. For the same compound, the solubility at 18 h in data set [5], in data set [6], in data set [7], in [8], in data set [9] and in data set [10] was at least 200 µM throughout. The solubility at 18 h in data set [11] and in [12] was at least 200 µM each time. Besides, the IC50 in [13] is 0.141 nM; in data set [14], 0.102 nM; in data set [15], 0.026 nM; in [20], 2.02 nM.

The values are drawn from ChEMBL document CHEMBL4420076, “Amylin and calcitonin receptor agonist” (2017).
